The source made the active and inactive calls.
Experiments:
[1] = Luminescent dose response cell-based high throughput screening assay for inhibitors of the Janus kinase 2 mutant JAK2V617F. [Related pubchem assays: 1446 (Primary screen.), 1521 (Confirmation assay.), 1486 (Counter screen.)]; type: functional
[2] = Luminescence Cell-Based Dose Response HTS to Identify Inhibitors of 5'UTR Stem-Loop Driven Prion Protein mRNA Translation in H4 Neuroglioblastoma Cells. [Related pubchem assays: 1827 (Project Summary), 1813 (Primary HTS)]; type: functional
[3] = molecular target: Luciferin 4-monooxygenase (Photinus pyralis, UniProt P08659); assay: inhibition of purified Photinus pyralis luciferase – biochemical, luminescence, dose response (AID 1891)
Sequence of Luciferin 4-monooxygenase (P08659 whole entry): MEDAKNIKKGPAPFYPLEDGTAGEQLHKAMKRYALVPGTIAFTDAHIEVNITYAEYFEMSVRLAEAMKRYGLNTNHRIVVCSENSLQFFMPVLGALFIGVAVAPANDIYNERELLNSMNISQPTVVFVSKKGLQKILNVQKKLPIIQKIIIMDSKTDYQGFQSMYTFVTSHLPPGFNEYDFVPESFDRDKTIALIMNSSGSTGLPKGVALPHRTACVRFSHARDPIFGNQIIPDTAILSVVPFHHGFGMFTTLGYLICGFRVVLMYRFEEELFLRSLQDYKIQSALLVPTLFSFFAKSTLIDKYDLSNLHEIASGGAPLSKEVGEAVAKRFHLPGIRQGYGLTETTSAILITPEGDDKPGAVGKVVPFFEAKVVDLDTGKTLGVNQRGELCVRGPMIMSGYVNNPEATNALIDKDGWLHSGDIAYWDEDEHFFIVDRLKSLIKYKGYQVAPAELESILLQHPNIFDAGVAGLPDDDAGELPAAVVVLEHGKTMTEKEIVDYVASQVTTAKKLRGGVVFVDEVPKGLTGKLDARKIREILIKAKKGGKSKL

[4] = Luminescence Cell-Based Dose Confirmation HTS to Identify Inhibitors of Platelet Dense Granule Release. [Related pubchem assays: 1663 (Primary HTS), 1678 (Summary of Project)]; type: functional
[5] = molecular target: T1, Calpain-2 catalytic subunit (Sus scrofa, UniProt P43367); assay: m-calpain protease blockers, concentration series – biochemical, fluorogenic peptide substrate, dose response (AID 1420); type: functional
T1 sequence (P43367 whole entry): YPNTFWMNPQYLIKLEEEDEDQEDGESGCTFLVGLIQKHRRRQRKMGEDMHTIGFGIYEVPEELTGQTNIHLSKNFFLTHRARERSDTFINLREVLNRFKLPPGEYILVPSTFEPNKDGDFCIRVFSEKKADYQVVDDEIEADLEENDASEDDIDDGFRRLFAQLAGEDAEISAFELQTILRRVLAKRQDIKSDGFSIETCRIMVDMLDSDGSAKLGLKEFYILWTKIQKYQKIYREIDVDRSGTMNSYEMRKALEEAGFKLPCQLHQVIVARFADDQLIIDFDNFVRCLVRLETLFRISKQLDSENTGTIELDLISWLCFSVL

[6] = molecular target: T2, Replicative DNA helicase DnaB (Mycobacterium tuberculosis, UniProt P9WMR3); assay: DnaB intein splicing inhibitors, dose response, biochemical, cell-free fluorescence (AID 449749); type: functional
T2 sequence (P9WMR3 whole entry): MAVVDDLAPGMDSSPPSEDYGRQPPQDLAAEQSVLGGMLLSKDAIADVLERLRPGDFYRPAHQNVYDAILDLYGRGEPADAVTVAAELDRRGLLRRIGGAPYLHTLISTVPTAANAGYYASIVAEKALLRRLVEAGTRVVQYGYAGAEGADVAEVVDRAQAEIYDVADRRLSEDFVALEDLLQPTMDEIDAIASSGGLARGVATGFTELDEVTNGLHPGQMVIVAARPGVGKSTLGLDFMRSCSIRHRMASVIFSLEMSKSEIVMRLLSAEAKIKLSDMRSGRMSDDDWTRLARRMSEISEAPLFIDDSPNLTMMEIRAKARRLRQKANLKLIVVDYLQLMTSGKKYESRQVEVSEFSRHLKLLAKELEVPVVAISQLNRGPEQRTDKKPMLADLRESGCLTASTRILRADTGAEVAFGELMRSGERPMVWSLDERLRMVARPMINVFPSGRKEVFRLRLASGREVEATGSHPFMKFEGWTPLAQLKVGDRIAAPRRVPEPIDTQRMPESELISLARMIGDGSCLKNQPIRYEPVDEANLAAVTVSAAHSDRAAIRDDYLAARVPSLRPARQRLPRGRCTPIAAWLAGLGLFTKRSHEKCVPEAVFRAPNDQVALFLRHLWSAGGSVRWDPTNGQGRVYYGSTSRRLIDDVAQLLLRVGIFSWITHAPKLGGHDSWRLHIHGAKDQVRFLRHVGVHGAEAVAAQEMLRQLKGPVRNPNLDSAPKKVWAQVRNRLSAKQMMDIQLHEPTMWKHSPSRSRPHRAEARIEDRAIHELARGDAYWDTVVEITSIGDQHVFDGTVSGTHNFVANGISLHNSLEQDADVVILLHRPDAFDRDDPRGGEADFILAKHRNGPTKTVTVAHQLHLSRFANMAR

Protein RecA = molecular target: T3, Protein RecA (Mycobacterium tuberculosis, UniProt P9WHJ3); assay: Fluorescence Cell-Free Homogeneous Dose Retest to Identify Inhibitors of RecA-Intein Splicing Activity. [Related pubchem assays (depositor defined):AID2097, AID2223, AID489010, AID492950]; type: functional
T3 sequence (P9WHJ3 whole entry): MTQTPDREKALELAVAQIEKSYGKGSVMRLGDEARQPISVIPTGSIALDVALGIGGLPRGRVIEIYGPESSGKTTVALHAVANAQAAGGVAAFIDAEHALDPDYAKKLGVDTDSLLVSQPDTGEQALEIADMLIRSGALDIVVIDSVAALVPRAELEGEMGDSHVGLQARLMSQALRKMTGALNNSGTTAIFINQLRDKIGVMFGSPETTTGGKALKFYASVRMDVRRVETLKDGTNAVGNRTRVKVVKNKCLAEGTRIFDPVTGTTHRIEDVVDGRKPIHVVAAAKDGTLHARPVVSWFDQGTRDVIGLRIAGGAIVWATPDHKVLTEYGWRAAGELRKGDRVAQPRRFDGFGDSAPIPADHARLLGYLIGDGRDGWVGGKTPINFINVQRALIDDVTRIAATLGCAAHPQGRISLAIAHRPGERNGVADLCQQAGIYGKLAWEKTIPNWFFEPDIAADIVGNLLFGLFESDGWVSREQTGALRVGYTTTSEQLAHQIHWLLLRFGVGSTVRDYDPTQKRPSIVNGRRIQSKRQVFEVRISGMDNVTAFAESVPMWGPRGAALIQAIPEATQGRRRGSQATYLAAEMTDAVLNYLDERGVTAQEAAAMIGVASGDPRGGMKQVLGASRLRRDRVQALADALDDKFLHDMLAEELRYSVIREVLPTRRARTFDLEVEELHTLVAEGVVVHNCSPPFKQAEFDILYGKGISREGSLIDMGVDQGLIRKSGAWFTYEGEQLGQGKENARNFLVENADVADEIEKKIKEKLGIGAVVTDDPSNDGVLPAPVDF

INS1 = assay: INS-1E survival protection against cytokine death – cell-based, luminescence, retest, dose response (AID 449756); type: functional; details: Rattus norvegicus;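 note: cell death triggered by IL-1 beta plus TNF-alpha plus IFN-gamma mixture; protective hits raise ATP signal compared with cytokine alone wells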
[7] = viability loss in HeLa cells – cytotoxicity control for MgcRacGAP inhibitor project, dose response (AID 624300); type: functional
[8] = molecular target: T4, Rac GTPase-activating protein 1 (Homo sapiens, UniProt Q9H0H5); assay: blockers of MgcRacGAP-driven Rac1 GTP hydrolysis – biochemical, ADP Hunter fluorescence, primary and confirmatory, confirmation (AID 624330); type: functional
T4 sequence (Q9H0H5 whole entry): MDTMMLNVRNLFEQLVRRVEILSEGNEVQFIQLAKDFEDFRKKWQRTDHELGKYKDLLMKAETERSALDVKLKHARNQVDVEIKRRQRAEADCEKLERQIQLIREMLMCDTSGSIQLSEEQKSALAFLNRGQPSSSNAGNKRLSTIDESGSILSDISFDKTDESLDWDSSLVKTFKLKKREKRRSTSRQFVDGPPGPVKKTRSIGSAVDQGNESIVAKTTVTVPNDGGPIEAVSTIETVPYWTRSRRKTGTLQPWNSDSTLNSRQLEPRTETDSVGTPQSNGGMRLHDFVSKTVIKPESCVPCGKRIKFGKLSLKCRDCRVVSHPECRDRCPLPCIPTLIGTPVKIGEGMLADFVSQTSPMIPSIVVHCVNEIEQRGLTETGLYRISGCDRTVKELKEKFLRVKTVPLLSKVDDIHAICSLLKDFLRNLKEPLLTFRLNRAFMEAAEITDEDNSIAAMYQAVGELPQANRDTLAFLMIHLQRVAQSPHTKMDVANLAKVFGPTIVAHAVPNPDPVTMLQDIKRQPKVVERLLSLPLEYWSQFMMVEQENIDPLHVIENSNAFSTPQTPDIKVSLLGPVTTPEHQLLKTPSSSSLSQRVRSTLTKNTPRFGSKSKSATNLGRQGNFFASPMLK

[9] = molecular target: Dual specificity protein phosphatase 6 (Rattus norvegicus, UniProt Q64346); assay: inhibition of rat DUSP6 enzyme activity – biochemical, in vitro, primary screen (AID 425)
Sequence of Dual specificity protein phosphatase 6 (Q64346 whole entry): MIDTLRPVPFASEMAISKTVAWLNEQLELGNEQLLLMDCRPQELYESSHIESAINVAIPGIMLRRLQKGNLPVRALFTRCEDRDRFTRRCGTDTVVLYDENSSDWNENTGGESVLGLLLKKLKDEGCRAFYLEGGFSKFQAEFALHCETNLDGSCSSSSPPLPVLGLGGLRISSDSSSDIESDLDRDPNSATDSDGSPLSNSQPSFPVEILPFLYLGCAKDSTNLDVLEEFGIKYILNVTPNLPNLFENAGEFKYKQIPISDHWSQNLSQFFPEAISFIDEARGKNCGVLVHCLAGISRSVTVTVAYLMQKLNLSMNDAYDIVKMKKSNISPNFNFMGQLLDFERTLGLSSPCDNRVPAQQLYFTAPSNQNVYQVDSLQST

Protein Rev = molecular target: T5, Protein Rev (Human immunodeficiency virus type 1 group M subtype B (isolate HXB2)(HIV-1), UniProt P04618); assay: blockers of HIV Rev/RRE RNA complex – biochemical, fluorescence polarization, HIV-1, dose response (AID 434976); parameters: species or system Human immunodeficiency virus 1
T5 sequence (P04618 whole entry): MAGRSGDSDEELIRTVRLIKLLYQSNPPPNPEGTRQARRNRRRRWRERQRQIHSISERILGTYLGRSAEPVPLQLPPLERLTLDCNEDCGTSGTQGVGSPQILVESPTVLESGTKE

[10] = molecular target: T6, Female germline-specific tumor suppressor gld-1 (Caenorhabditis elegans, UniProt Q17339); assay: blockers of GLD-1/TGE RNA complex formation – biochemical, fluorescence polarization, C. elegans, dose response (AID 2802);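 note: fluorescence polarization of labeled TGE RNA bound by purified gld-1 protein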
T6 sequence (Q17339 whole entry): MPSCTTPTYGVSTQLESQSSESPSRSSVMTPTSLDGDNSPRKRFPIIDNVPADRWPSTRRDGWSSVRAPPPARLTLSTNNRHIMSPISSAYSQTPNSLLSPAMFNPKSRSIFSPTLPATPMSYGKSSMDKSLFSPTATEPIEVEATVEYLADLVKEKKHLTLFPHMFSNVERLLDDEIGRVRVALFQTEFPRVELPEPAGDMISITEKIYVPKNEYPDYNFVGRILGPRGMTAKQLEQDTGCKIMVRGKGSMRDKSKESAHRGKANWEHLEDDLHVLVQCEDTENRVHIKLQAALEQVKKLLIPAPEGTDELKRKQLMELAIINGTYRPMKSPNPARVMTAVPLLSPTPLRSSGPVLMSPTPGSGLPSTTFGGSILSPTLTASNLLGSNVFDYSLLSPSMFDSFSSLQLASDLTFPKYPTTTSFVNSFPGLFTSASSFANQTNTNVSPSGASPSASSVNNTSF

14-3-3 protein gamma = 14-3-3 protein gamma (Homo sapiens, UniProt P61981); assay: modulators of 14-3-3 gamma client binding – dose response (AID 711); type: functional
Sequence of 14-3-3 protein gamma (P61981 whole entry): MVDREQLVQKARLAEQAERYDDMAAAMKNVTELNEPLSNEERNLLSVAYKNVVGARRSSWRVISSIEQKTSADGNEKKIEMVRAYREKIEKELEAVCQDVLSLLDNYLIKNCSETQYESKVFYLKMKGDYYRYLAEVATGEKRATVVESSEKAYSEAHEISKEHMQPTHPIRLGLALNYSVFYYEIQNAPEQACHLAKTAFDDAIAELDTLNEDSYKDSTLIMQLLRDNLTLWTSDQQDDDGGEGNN

[11] = molecular target: T7, Polyadenylate-binding protein 1 (Homo sapiens, UniProt P11940); assay: MLLE binding blockers, Cy5 peptide tracer – biochemical, fluorescence polarization, Cy5-PAM2 peptide, secondary, miRNA deadenylation inhibitor project, dose response (AID 602260); type: functional; details: read-out: IC50_Mean
T7 sequence (P11940 whole entry, the tested form may be a part): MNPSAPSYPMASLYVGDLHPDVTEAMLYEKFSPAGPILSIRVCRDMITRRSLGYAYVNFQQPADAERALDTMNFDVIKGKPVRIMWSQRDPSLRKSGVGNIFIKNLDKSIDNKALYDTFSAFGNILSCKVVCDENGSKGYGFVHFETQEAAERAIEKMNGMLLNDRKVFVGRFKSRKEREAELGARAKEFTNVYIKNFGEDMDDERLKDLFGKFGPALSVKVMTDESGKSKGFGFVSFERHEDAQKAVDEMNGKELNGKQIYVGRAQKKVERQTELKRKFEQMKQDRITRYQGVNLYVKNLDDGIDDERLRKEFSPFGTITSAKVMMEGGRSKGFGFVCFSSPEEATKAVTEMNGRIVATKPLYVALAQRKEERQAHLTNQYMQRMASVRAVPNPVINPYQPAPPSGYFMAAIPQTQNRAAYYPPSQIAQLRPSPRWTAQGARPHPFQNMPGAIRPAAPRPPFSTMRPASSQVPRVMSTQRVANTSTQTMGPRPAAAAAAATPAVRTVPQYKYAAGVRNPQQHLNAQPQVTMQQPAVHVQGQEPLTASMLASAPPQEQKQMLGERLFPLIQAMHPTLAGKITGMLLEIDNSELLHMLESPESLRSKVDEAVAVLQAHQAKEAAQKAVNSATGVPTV

[12] = molecular target: T7, Polyadenylate-binding protein 1; assay: MLLE domain peptide-binding blockers, IC50 – biochemical, fluorescence polarization, FITC-PAM2 peptide, dose response (AID 602259); type: functional; details: read-out: IC50_Mean
[13] = molecular target: Long-chain-fatty-acid--AMP ligase FadD28 (Mycobacterium tuberculosis, UniProt P9WQ59); assay: Fluorescence polarization aasay to screen for inhibitors that compete for the binding of FadD28 to a bisubstrate Measured in Biochemical System Using Plate Reader - 2147-01_Inhibitor_Dose_CherryPick_Activity.; type: functional, Mycobacterium tuberculosis H37Rv
Sequence of Long-chain-fatty-acid--AMP ligase FadD28 (P9WQ59 whole entry): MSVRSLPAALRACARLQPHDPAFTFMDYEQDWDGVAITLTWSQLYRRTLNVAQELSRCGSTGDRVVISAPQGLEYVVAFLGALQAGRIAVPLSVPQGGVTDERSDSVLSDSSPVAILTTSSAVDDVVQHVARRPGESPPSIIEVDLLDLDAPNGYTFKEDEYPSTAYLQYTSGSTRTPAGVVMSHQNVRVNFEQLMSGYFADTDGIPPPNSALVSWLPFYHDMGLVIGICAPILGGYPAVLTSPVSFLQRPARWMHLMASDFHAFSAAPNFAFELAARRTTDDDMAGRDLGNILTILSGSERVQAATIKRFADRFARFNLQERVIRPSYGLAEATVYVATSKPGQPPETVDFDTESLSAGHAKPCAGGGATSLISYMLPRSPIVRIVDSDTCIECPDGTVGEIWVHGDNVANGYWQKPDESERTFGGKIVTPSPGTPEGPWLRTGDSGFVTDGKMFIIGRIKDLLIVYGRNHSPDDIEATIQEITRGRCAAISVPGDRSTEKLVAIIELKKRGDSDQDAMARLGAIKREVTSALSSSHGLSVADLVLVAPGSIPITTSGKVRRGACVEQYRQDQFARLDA

[14] = molecular target: Aryl hydrocarbon receptor (Homo sapiens, UniProt P35869); assay: Luminescence-based cell-based high throughput dose response assay for activators of the Aryl Hydrocarbon Receptor (AHR). [Related pubchem assays: 2796 (Primary screen (AHR activators in singlicate)), 2845 (Confirmation screen (AHR activators in triplicate)), 434939 (Counterscreen (PXR activators in triplicate)), 2804 (Summary (AHR activators))]; type: ADME
Sequence of Aryl hydrocarbon receptor (P35869 whole entry): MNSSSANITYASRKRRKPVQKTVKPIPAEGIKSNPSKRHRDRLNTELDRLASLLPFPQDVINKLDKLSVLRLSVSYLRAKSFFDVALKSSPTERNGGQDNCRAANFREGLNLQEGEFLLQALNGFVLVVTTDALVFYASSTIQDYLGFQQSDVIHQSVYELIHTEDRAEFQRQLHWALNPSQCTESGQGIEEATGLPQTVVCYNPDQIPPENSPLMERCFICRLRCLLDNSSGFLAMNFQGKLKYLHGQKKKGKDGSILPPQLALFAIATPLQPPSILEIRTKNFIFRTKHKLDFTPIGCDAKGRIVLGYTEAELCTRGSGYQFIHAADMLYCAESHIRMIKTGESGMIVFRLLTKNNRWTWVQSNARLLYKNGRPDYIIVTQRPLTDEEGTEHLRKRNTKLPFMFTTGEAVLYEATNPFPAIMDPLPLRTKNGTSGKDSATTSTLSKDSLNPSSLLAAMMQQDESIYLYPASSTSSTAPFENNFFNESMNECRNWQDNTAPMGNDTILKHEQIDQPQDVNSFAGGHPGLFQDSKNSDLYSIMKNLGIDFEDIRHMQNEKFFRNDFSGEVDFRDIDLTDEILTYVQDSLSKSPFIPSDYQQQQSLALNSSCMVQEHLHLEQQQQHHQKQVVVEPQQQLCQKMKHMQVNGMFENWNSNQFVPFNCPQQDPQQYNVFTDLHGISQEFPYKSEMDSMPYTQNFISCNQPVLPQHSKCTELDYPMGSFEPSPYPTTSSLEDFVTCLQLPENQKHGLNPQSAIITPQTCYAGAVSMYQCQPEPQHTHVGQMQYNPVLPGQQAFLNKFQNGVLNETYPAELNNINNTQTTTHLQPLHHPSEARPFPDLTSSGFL

O=C1/C(=N\c2ccc(O)cc2)C=C(O)c2ccccc21
IC50 [1]: 2.02 µM (active)
EC50 [2]: > 120 µM (not active)
EC50 [3]: 3.81 µM (active)
EC50 [4]: 4.34 µM (active)
IC50 [5]: 5.1 µM (not active)
AC50 [6]: 3.88 µM (active)
EC50 (Protein RecA): 3.57 µM (active)
AC50 (INS1): 6.8 µM (active)
CC50 [7]: 100 µM (active)
IC50 [8]: 23.7 µM (active)

CCOC(=O)c1cc2sccc2n1Cc1ccccc1
IC50 [9]: > 100 µM (not active)

CCn1c(CSc2nccn2C)nc2cc(C(=O)O)ccc21
IC50 (Protein Rev): 19.7 µM (not active)
IC50 [10]: 14.9 µM (inactive)
IC50 (14-3-3 protein gamma): > 50 µM (not active)
IC50 [11]: 62.1 µM (inactive)
IC50 [12]: 36.7 µM (inactive)
AC50 [13]: > 100 µM (inactive)

COCC(=O)Nc1nnc(-c2cccs2)s1
EC50 [14]: 6.26 µM (active)

— ChEMBL document CHEMBL1201862, “PubChem BioAssay data set” (2004)
